28 compounds from patent US9139576B2, “Aminomethyl biaryl benzotriazole derivatives” (Merck Sharp & Dohme Corp., priority 2011, dated 2015) can be followed below.

The experiment addresses T1, recombinant human mGluR2 (Homo sapiens, UniProt Q14416).
T1 construct: expressed in transfected cells
Description: FLIPR Ca2+ mobilization assay, potentiation of mGluR2. The format is cell-based. To be noted: potentiation with EC20 glutamate (900 nM); CHO dhfr- cells expressing human mGluR2 and Gα16. How it is done: Potencies are determined as follows. The compounds of the present invention may be tested in a fluorescence laser imaging plate reader (FLIPR) based assay. This assay is a common functional assay to monitor Ca^2+ mobilization in whole cells expressing recombinant receptor coupled with a promiscuous G-protein. CHO dhfr-cells stably expressing recombinant human mGluR2 and Gα16 loaded with Fluo-4 AM (Invitrogen, Carlsbad Calif.) are treated with varying concentrations of compounds and the Ca^2+ response is monitored on a FLIPR384 (Molecular Devices, Sunnydale Calif.) for agonist activity. The potentiation response is monitored after a subsequent addition of an EC20 concentration of glutamate (900 nM). The maximum calcium response at each concentration of compound for agonism or potentiation are plotted as dose responses curves fitted with a four parameters logistic equation giving EC50 and Hill coefficient using the iterative non linear curve fitting software program.
Background: A change in cytosolic calcium serves as a functional read-out for many receptors and channels.

Usually EC50 stands for the concentration at which the effect is half-maximal.

T1 sequence (Q14416 19-872): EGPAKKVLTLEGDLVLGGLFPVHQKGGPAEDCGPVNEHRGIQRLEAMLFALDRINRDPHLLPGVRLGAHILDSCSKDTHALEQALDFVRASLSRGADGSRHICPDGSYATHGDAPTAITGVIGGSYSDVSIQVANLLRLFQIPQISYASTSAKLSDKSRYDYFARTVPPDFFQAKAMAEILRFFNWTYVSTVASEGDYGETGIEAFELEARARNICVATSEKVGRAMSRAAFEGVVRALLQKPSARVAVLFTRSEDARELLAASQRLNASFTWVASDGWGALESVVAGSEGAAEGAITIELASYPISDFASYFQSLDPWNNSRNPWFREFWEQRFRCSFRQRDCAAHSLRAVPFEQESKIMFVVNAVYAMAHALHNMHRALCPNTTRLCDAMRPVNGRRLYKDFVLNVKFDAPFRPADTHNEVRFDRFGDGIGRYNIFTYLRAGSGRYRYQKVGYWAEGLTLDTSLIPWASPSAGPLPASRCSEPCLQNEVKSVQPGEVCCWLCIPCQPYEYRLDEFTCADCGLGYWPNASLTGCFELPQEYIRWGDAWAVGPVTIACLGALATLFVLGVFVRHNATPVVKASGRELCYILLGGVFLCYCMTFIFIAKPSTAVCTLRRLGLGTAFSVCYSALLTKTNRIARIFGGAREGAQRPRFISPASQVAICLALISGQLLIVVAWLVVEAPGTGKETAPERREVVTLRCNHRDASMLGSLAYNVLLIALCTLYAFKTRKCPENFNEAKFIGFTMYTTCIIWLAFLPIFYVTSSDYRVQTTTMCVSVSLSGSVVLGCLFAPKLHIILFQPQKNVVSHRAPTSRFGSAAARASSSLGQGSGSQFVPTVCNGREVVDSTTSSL

With `CN1C(=O)CN(Cc2ccc(-c3ccc4c(nnn4CC4CC4)c3C#N)cc2)C1=O` [Example 18, 1-(Cyclopropylmethyl)-5-{4-[(3-methyl-2,4-dioxoimidazolidin-1-yl)methyl]phenyl}-1H-benzotriazole-4-carbonitrile], the EC50 was 39 nM. For `CCc1c(-c2ccc(CN3CC(=O)N(C)C3=O)cc2)ccc2c1nnn2CC1CC1` [Example 19, 1-{4-[1-(Cyclopropylmethyl)-4-ethyl-1H-benzotriazol-5-yl]benzyl}-3-methylimidazolidine-2,4-dione], the EC50 was determined as 7.8 nM. Take `CSc1c(-c2ccc(CN3CC(=O)N(C)C3=O)c(F)c2)ccc2c1nnn2CC1CC1` [Example 15, 1-{4-[1-(Cyclopropylmethyl)-4-(methylsulfanyl)-1H-benzotriazol-5-yl]-2-fluorobenzyl}-3-methylimidazolidine-2,4-dione]: the EC50 came to 6.6 nM.

As for `CC(C)Cn1nnc2c(C(F)(F)F)c(-c3ccc(CN4CC(=O)N(C)C4=O)cc3)ccc21` [Example 9, 3-Methyl-1-{4-[1-(2-methylpropyl)-4-(trifluoromethyl)-1H-benzotriazol-5-yl]benzyl}imidazolidine-2,4-dione], the EC50 turned out to be 6.1 nM. Regarding `CN1C(=O)CN(Cc2ccc(-c3ccc4c(nnn4CC4CC4)c3S(C)(=O)=O)cc2F)C1=O` [Example 16, 1-{4-[1-(Cyclopropylmethyl)-4-(methylsulfonyl)-1H-benzotriazol-5-yl]-2-fluorobenzyl}-3-methylimidazolidine-2,4-dione], the EC50 was 245 nM.

Regarding `CCOC(=O)CNC(=O)NCc1ccc(-c2ccc3c(nnn3CC3CC3)c2Cl)cc1` [Example 83, Ethyl N-({4-[4-chloro-1-(cyclopropylmethyl)-1H-benzotriazol-5-yl]benzyl}carbamoyl)glycinate], the EC50 was determined as 124 nM. Consider `CC(C)(C)OC(=O)N1CCN(Cc2ccc(-c3ccc4c(nnn4CC4CC4)c3Cl)cc2)CC1` [Example 52, tert-Butyl 4-{4-[4-chloro-1-(cyclopropylmethyl)-1H-benzotriazol-5-yl]benzyl}piperazine-1-carboxylate], for which the EC50 worked out at 80 nM. The figure for `C[C@@H](O)C(=O)NCc1ccc(-c2ccc3c(nnn3CC3CC3)c2Cl)cc1` [Example 39, (2R)—N-{4-[4-chloro-1-(cyclopropylmethyl)-1H-benzotriazol-5-yl]benzyl}-2-hydroxypropanamide] is 49 nM; for `CN1C(=O)CN(Cc2ccc(-c3ccc4c(c3)nnn4CC3CC3)cc2)C1=O` [Example 28, 1-{4-[1-(Cyclopropylmethyl)-1H-benzotriazol-5-yl]benzyl}-3-methylimidazolidine-2,4-dione] it is 196 nM; for `CN1C(=O)CN(Cc2ccc(-c3ccc4c(nnn4CC4CC4)c3C(F)(F)F)c(F)n2)C1=O` [Example 1, 1-({5-[1-(Cyclopropylmethyl)-4-(trifluoromethyl)-1H-benzotriazol-5-yl]-6-fluoropyridin-2-yl}methyl)-3-methylimidazolidine-2,4-dione] it is 17.3 nM. The figure for `O=C1CN(Cc2ccc(-c3ccc4c(nnn4CC4CC4)c3C(F)(F)F)cc2)C(=O)N1` [Example 4, 1-{4-[1-(Cyclopropylmethyl)-4-(trifluoromethyl)-1H-benzotriazol-5-yl]benzyl}imidazolidine-2,4-dione] is 9.21 nM; for `CN1C(=O)CN(Cc2ccc(-c3ccc4c(nnn4CC4CC4)c3C(F)(F)F)cc2)C1=O` [Example 2, 1-{4-[1-(Cyclopropylmethyl)-4-(trifluoromethyl)-1H-benzotriazol-5-yl]benzyl}-3-methylimidazolidine-2,4-dione] it is 5.8 nM; for `O=C1CN(Cc2ccc(-c3ccc4c(nnn4CC4CC4)c3Cl)cc2)C(=O)N1` [Example 51, 1-{4-[4-Chloro-1-(cyclopropylmethyl)-1H-benzotriazol-5-yl]benzyl}imidazolidine-2,4-dione] it is 11.4 nM. Take `CN1C(=O)CN(Cc2ccc(-c3ccc4c(nnn4CC4CC4)c3CF)cc2)C1=O` [Example 22, 1-{4-[1-(Cyclopropylmethyl)-4-(fluoromethyl)-1H-benzotriazol-5-yl]benzyl}-3-methylimidazolidine-2,4-dione]: the EC50 stood at 14 nM. In the case of `NCc1ccc(-c2ccc3c(nnn3CC3CC3)c2Cl)cc1` [Example 38, 1-{4-[4-Chloro-1-(cyclopropylmethyl)-1H-benzotriazol-5-yl]phenyl}methanamine], the EC50 was 2320 nM.

In the case of `Clc1c(-c2ccc(CN3CCNCC3)cc2)ccc2c1nnn2CC1CC1` [Example 71, 4-Chloro-1-(cyclopropylmethyl)-5-[4-(piperazin-1-ylmethyl)phenyl]-1H-benzotriazole], the EC50 turned out to be 234 nM. Regarding `CN1C(=O)CN(Cc2ccc(-c3ccc4c(nnn4CC4CC4)c3C=O)cc2)C1=O` [Example 20, 1-(Cyclopropylmethyl)-5-{4-[(3-methyl-2,4-dioxoimidazolidin-1-yl)methyl]phenyl}-1H-benzotriazole-4-carbaldehyde], the EC50 amounted to 56 nM. The figure for `CN1C(=O)CN(Cc2ccc(-c3ccc4c(nnn4CC4CC4)c3[S+](C)[O-])cc2F)C1=O` (stereo not shown) [Example 17, 1-{4-[1-(Cyclopropylmethyl)-4-(methylsulfinyl)-1H-benzotriazol-5-yl]-2-fluorobenzyl}-3-methylimidazolidine-2,4-dione] is 1250 nM; for `N#CCC(=O)N1CCN(Cc2ccc(-c3ccc4c(nnn4CC4CC4)c3Cl)cc2)CC1` [Example 72, 3-(4-{4-[4-Chloro-1-(cyclopropylmethyl)-1H-benzotriazol-5-yl]benzyl}piperazin-1-yl)-3-oxopropanenitrile] it is 30.4 nM. In the case of `CC(C)Cn1nnc2c(Br)c(-c3ccc(CN4CC(=O)N(C)C4=O)cc3)ccc21` [Example 8, 1-{4-[4-Bromo-1-(2-methylpropyl)-1H-benzotriazol-5-yl]benzyl}-3-methylimidazolidine-2,4-dione], the EC50 stood at 3 nM.

As for `[N-]=[N+]=NCc1ccc(-c2ccc3c(nnn3CC3CC3)c2Cl)cc1` [Example 37, 5-[4-(Azidomethyl)phenyl]-4-chloro-1-(cyclopropylmethyl)-1H-benzotriazole], the EC50 was 53 nM. In the case of `C[C@H](O)C(=O)NCc1ccc(-c2ccc3c(nnn3CC3CC3)c2C(F)(F)F)cc1` [Example 5, (2S)—N-{4-[1-(Cyclopropylmethyl)-4-(trifluoromethyl)-1H-benzotriazol-5-yl]benzyl}-2-hydroxypropanamide], the EC50 is 59.1 nM. The figure for `CN1C(=O)CN(Cc2ccc(-c3ccc4c(nnn4CC4CC4)c3Br)cc2)C1=O` [Example 10, 1-{4-[4-Bromo-1-(cyclopropylmethyl)-1H-benzotriazol-5-yl]benzyl}-3-methylimidazolidine-2,4-dione] is 5.3 nM; for `O=C1CNC(=O)N1Cc1ccc(-c2ccc3c(nnn3CC3CC3)c2Cl)cc1` [Example 84, 3-{4-[4-Chloro-1-(cyclopropylmethyl)-1H-benzotriazol-5-yl]benzyl}imidazolidine-2,4-dione] it is 34.9 nM.

For the compound `CN1CC(=O)N(Cc2ccc(-c3ccc4c(nnn4CC4CC4)c3Cl)cc2)C1=O` [Example 85, 3-{4-[4-Chloro-1-(cyclopropylmethyl)-1H-benzotriazol-5-yl]benzyl}-1-methylimidazolidine-2,4-dione], the EC50 was 8.9 nM. The figure for `CN1C(=O)CN(Cc2ccc(-c3ccc4c(nnn4CC4CC4)c3Cl)cc2)C1=O` [Example 29, 1-{4-[4-Chloro-1-(cyclopropylmethyl)-1H-benzotriazol-5-yl]benzyl}-3-methylimidazolidine-2,4-dione] is 11.4 nM; for `CN1C(=O)CN(Cc2ccc(-c3ccc4c(nnn4CC4CC4)c3CO)cc2)C1=O` [Example 21, 1-{4-[1-(Cyclopropylmethyl)-4-(hydroxymethyl)-1H-benzotriazol-5-yl]benzyl}-3-methylimidazolidine-2,4-dione] it is 841 nM; for `Cn1c(=O)[nH]n(Cc2ccc(-c3ccc4c(nnn4CC(C)(C)C)c3Br)cc2)c1=O` [Example 7, 1-{4-[4-Bromo-1-(2,2-dimethylpropyl)-1H-benzotriazol-5-yl]benzyl}-4-methyl-1,2,4-triazolidine-3,5-dione] it is 532 nM.
